Each structure is given as a SMILES string. Values joined by “and” are separate entries in the source; they are usually repeats but may differ in a detail not shown here. Identical values can stand only once.

FKBP12, sequence (P62942 whole entry, species assumed): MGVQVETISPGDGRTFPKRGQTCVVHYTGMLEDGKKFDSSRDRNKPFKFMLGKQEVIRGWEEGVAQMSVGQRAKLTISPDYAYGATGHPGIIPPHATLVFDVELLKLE

One experiment concerns the target FKBP12 (Homo sapiens, UniProt P62942). The experiment is described as follows: Affinity for FKBP-12 (Ki), succinyl-Ala-Leu-Pro-Phe-pNA chymotrypsin-coupled assay. Details: key to FKBP12 inhibition (in Kiapps column): NI: no inhibition; NSI: no significant inhibition. To be noted: @ 20. Type of experiment: biochemical. Here is the method: In a quartz cuvette, a final 1 mL buffer concentration was reached (50 mM Hepes, 100 mM NaCl, pH 8.0). Within this final reaction volume, 3.5 μL […] FKBP-12 (in 50 mM Hepes, 100 mM NaCl, pH 8.0) and 10 μL test compound in DMSO were added. The reaction was initiated by adding 10 μL chymotrypsin (100 mg/mL in 1 mM HCl) followed by 5 μL (1-20 mM succinyl-Ala-Leu-Pro-Phe-pNA in 240 mM LiCl/TFE).
The absorbance at 390 nm versus time was monitored for up to 400 seconds. Rate constants were determined from the absorbance versus time plots generated.
Turning to `O=C(OCCCCc1ccccc1)[C@@H]1CCCCN1S(=O)(=O)N(O)c1ccccc1` [Compound 99, (S)-1-(Hydroxy-phenyl-sulfamoyl)-piperidine-2-carboxylic acid 4-phenyl-butyl ester], the “FKBP12 inhibition (in Kiapps column)” value was “NI @ 20”.

Still in this experiment, the particulars now being: Table 2; read-out: FKBP12 Kiapps.
As to `O=C(OCCCCc1ccccc1)C1CSCCN1S(=O)(=O)Nc1ccccc1` (stereo not shown) [Compound 69, 4-Phenylsulfamoyl-thiomorpholine-3-carboxylic acid 4-phenyl-butyl ester], the Ki worked out at 5200 nM.
Still for that read-out and setting: next, `O=C(OCCCCc1ccccc1)C1CSCCN1S(=O)(=O)Nc1ccc2[nH]c(=O)[nH]c2c1` (stereo not shown) [Compound 70, 4-(2-Oxo-2,3-dihydro-1H-benzoimidazol-5-ylsulfamoyl)-thiomorpholine-3-carboxylic acid 4-phenyl-butyl ester]: 960 nM; `CN(C)S(=O)(=O)N1CCCC[C@H]1c1nnc(Cc2ccccc2)o1` [Compound 75, 2S-(5-Benzyl-[1,3,4]oxadiazol-2-yl)-piperidine-1-sulfonic acid dimethylamide]: 107000 nM.
`O=S(=O)(Nc1ccccc1)N1CCCC[C@H]1c1nnc(Cc2ccccc2)o1` [Compound 76, 2S-(5-Benzyl-[1,3,4]oxadiazol-2-yl)-piperidine-1-sulfonic acid phenylamide]: the Ki amounted to 1300 nM.
Regarding `COc1ccc(N(C)S(=O)(=O)N2CCCC[C@H]2c2nnc(Cc3ccccc3)o2)cc1` [Compound 77, 2-(5-Benzyl-[1,3,4]oxadiazol-2-yl)-piperidine-1-sulfonic acid (4-methoxy-phenyl)-methyl-amide], the Ki is 68000 nM.
Same read-out and setting: next, `COc1cc(NS(=O)(=O)N2CCCC[C@H]2c2nnc(Cc3ccccc3)o2)cc(OC)c1OC` [Compound 78, 2-(5-Benzyl-[1,3,4]oxadiazol-2-yl)-piperidine-1-sulfonic acid (3,4,5-trimethoxy-phenyl)-amide]: 5200 nM; `COc1cc(NS(=O)(=O)N2[C@H]3CC[C@H](C3)[C@H]2C(=O)OCCCCc2ccccc2)cc(OC)c1OC` [Compound 85, 2-(3,4,5-Trimethoxy-phenylsulfamoyl)-2-aza-bicyclo[2.2.1]heptane-endo-3-carboxylic acid 4-phenyl-butyl ester]: 1600 nM.
In the case of `O=C(OCc1ccccc1)[C@@H]1CCCCN1S(=O)(=O)Nc1ccc(N2CCOCC2)nc1` [Compound 86, (S)-1-(6-Morpholin-4-yl-pyridin-3-ylsulfamoyl)-piperidine-2-carboxylic acid Benzyl ester], the Ki was 1790 nM and 1170 nM.
The same measure, in the same setting: next, `COc1ccc(NS(=O)(=O)N2CCCC[C@H]2C(=O)OCc2ccccc2)cn1` [Compound 87, 1-(6-Methoxy-pyridin-3-ylsulfamoyl)-piperidine-2S-carboxylic acid Benzyl ester]: 760 nM; `C[C@@H]1CN(S(=O)(=O)N2CCCC[C@H]2C(=O)OCc2ccccc2)C[C@H](C)O1` [Compound 88, (S)-1-(cis-2,6-Dimethyl-morpholine-4-sulfonyl)-piperidine-2-carboxylic acid benzyl ester]: 837 nM; `COC(=O)[C@@H]1CCCCN1S(=O)(=O)Nc1cc(OC)c(OC)c(OC)c1` [Compound 90, (S)-1-(3,4,5-Trimethoxy-phenylsulfamoyl)-piperidine-2-carboxylic acid Methyl ester]: 6900 nM.
For the molecule `COc1cc(NS(=O)(=O)N2CCCC[C@H]2C(=O)NCCCN2CCCCC2)cc(OC)c1OC` [Compound 91, (S)-1-(3,4,5-Trimethoxy-phenylsulfamoyl)-piperidine-2-carboxylic acid (3-piperidin-1-yl-propyl)-amide], the Ki amounted to 1300 nM.
Take `COc1cc(NS(=O)(=O)N2CCCC[C@H]2C(=O)NCCCc2cccnc2)cc(OC)c1OC` [Compound 93, (S)-1-(3,4,5-Trimethoxy-phenylsulfamoyl)-piperidine-2-carboxylic acid (3-pyridin-3-yl-propyl)-amide]: the Ki amounted to 200 nM.
The same measure, in the same setting: with `O=C(OCCCCc1ccccc1)[C@@H]1CCCCN1S(=O)(=O)Nc1ccc(N2CCOCC2)nc1` [Compound 94, (S)-1-(6-Morpholin-4-yl-pyridin-3-ylsulfamoyl)-piperidine-2-carboxylic acid 4-phenyl-butyl ester] the figure was 208 nM; with `O=C(OCCCCc1ccccc1)[C@@H]1CCCCN1S(=O)(=O)Nc1cc(F)c(F)c(F)c1` [Compound 95, (S)-1-(3,4,5-Trifluoro-phenylsulfamoyl)-piperidine-2-carboxylic acid 4-phenyl-butyl ester], 435 nM; with `O=C(OCCCCc1ccccc1)[C@@H]1CCCCN1S(=O)(=O)Nc1ccc(C(F)(F)F)nc1` [Compound 96, (S)-1-(6-Trifluoromethyl-pyridin-3-ylsulfamoyl)-piperidine-2-carboxylic acid 4-phenyl-butyl ester], 440 nM.
The same measure, in the same setting: next, `O=C(OCCCCc1ccccc1)[C@@H]1CCCCN1S(=O)(=O)Nc1cccnc1` [Compound 97, (S)-1-(Pyridin-3-ylsulfamoyl)-piperidine-2-carboxylic acid 4-phenylbutyl ester]: 73 nM; `COc1cccc(NS(=O)(=O)N2CCCC[C@H]2C(=O)OCCCCc2ccccc2)c1` [Compound 98]: 218 nM.
Take `COc1cc(NS(=O)(=O)N2CCCC[C@H]2C(=O)OC(COCc2ccccc2)COCc2ccccc2)cc(OC)c1OC` [Compound 102, (S)-1-(3,4,5-Trimethoxy-phenylsulfamoyl)-piperidine-2-carboxylic acid 2-benzyloxy-1-benzyloxymethyl-ethyl ester]: the Ki worked out at 171 nM.
Same read-out and setting: with `COc1ccc(NS(=O)(=O)N2CCCC[C@H]2C(=O)OC(COCc2ccccc2)COCc2ccccc2)cn1` [Compound 103, (S)-1-(6-Methoxy-pyridin-3-ylsulfamoyl)-piperidine-2-carboxylic acid 2-benzyloxy-1-benzyloxymethyl-ethyl ester] the figure was 39 nM; with `COc1cc(NS(=O)(=O)N2CCCC[C@H]2C(=O)OC(COCc2ccccc2)COCc2ccccc2)c(OC)cc1Cl` [Compound 104, (S)-1-(4-Chloro-2,5-dimethoxy-phenylsulfamoyl)-piperidine-2-carboxylic acid 2-benzyloxy-1-benzyloxymethyl-ethyl ester], 7100 nM.
Turning to `O=C(OC(COCc1ccccc1)COCc1ccccc1)[C@@H]1CCCCN1S(=O)(=O)Nc1cccnc1` [Compound 105, (S)-1-(Pyridin-3-ylsulfamoyl)-piperidine-2-carboxylic acid 2-benzyloxy-1-benzyloxymethyl-ethyl ester], the Ki was 33 nM.
For `O=C(OC(COCc1ccccc1)COCc1ccccc1)[C@@H]1CCCCN1S(=O)(=O)Nc1ccc(N2CCOCC2)nc1` [Compound 106, (S)-1-(6-Morpholin-4-yl-pyridin-3-ylsulfamoyl)-piperidine-2-carboxylic acid 2-benzyloxy-1-benzyloxymethyl-ethyl ester], the Ki worked out at 115 nM.
`Cc1ccc(NS(=O)(=O)N2CCCC[C@H]2C(=O)OC(COCc2ccccc2)COCc2ccccc2)cn1` [Compound 107, (S)-1-(6-Methyl-pyridin-3-ylsulfamoyl)-piperidine-2-carboxylic acid 2-benzyloxy-1-benzyloxymethyl-ethyl ester]: the Ki turned out to be 88 nM.

The record behind these values is patent US6544987B2, “Compounds, compositions, and methods for stimulating neuronal growth and elongation” (Pfizer Inc., priority 1999, dated 2003).
